{
  "source": "patent US9169224B2",
  "about": "“Piperazinyl and piperidinyl ureas as modulators of fatty acid amide hydrolase” (Janssen Pharmaceutica NV, priority 2004, dated 2015)",
  "target": "FAAH (Homo sapiens (Human), UniProt O00519)",
  "sequence (O00519 whole entry)": "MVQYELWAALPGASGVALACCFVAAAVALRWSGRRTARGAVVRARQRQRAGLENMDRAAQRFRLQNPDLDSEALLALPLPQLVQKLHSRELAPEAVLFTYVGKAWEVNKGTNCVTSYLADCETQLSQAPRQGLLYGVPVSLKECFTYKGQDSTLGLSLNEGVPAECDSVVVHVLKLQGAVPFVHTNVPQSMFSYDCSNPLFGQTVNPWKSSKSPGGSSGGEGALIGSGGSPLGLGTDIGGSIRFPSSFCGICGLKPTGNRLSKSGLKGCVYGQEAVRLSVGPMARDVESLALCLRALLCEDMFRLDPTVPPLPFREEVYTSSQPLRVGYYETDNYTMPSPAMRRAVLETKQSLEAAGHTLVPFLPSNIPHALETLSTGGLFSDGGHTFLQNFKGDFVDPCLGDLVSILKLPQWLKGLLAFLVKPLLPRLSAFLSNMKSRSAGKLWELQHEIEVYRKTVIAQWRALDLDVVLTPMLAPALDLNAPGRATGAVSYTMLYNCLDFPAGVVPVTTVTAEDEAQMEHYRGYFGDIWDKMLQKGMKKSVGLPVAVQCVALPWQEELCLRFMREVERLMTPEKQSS",
  "test": "Assay Method 1: FAAH assay, T84 cell homogenate, 3H-anandamide hydrolysis",
  "type": "biochemical",
  "conditions": "3H-AEA tracer 200 nM, 1 h at rt",
  "method": "T84 frozen pellets (contents of 1-4×15 cm culture dishes) were homogenized in 300 mL of FAAH assay buffer (125 mM Tris, 1 mM EDTA, 0.2% glycerol, 0.02% Triton X-100, 0.4 mM Hepes, pH 9). The assay mixture was prepared from 50 μL of the cell homogenate, 10 μL of the test compound, and 40 μL of anandamide [1-3H-ethanolamine] (^3H-AEA; Perkin-Elmer, 10.3 Ci/mmol), which was added last, for a final tracer concentration of 200 nM. The reaction mixture was incubated at rt for 1 hour (h). During the incubation, 96-well Multiscreen filter plates (catalog number MAFCNOB50; Millipore, Bedford, Mass., USA) were loaded with 25 μL of activated charcoal (Multiscreen column loader, catalog number MACL09625, Millipore) and washed once with 100 μL of MeOH. Also during the incubation, 96-well DYNEX MicroLite plates (catalog number NL510410) were loaded with 100 μL of MicroScint40 (catalog number 6013641, Packard Bioscience, Meriden, Conn., USA). After the 1 h incubation, 60 μL of the reaction mixture were transferred to the charcoal plates, which were then assembled on top of the DYNEX plates using Centrifuge Alignment Frames (catalog number MACF09604, Millipore). The unbound, labeled ethanolamine was centrifuged through to the bottom plate (5 min at 2000 rpm), which was preloaded with the scintillant, as described above. The plates were sealed and left at rt for 1 h before counting on a Hewlett Packard TopCount.",
  "note": "Structures can show the parent of a compound that is named as a salt.",
  "data": [
    {"smiles": "COc1cc(Br)cc(CN2CCN(C(=O)Nc3ccccc3)CC2)c1O", "note": "[Example 161, 4-(5-Bromo-2-hydroxy-3-methoxy-benzyl)-piperazine-1-carboxylic acid phenylamide hydrochloride]", "values": [
      {"measurement": "IC50", "setting": "hydrochloride", "result": 210, "unit": "nM"}
    ]},
    {"smiles": "Cc1cccc(CN2CCN(C(=O)Nc3ccccc3)CC2)c1", "note": "[Example 42, 4-(3-Methyl-benzyl)-piperazine-1-carboxylic acid phenylamide]", "values": [
      {"measurement": "IC50", "result": 2000, "unit": "nM"}
    ]},
    {"smiles": "O=C(Nc1cccc(Cl)c1)N1CCN(Cc2cnc3ccccc3c2)CC1", "note": "[Example 100, 4-Quinolin-3-ylmethyl-piperazine-1-carboxylic acid (3-chloro-phenyl)-amide]", "values": [
      {"measurement": "IC50", "result": 200, "unit": "nM"}
    ]},
    {"smiles": "Cc1ccccc1NC(=O)N1CCN(Cc2ccc(Br)c(Br)c2)CC1", "note": "[Example 96, 4-(3,4-Dibromo-benzyl)-piperazine-1-carboxylic acid o-tolylamide]", "values": [
      {"measurement": "IC50", "result": "> 10000", "unit": "nM"}
    ]},
    {"smiles": "O=C(Nc1cccnc1)N1CCN(Cc2ccc(Br)c(Br)c2)CC1", "note": "[Example 118, 4-(3,4-Dibromo-benzyl)-piperazine-1-carboxylic acid pyridin-3-ylamide]", "values": [
      {"measurement": "IC50", "result": 27, "unit": "nM"}
    ]},
    {"smiles": "O=C(Nc1ccccc1)N1CCN(CCc2ccccc2)CC1", "note": "[Example F, 4-Phenethyl-piperazine-1-carboxylic acid phenylamide, reference compound]", "values": [
      {"measurement": "IC50", "result": "> 10000", "unit": "nM"}
    ]},
    {"smiles": "COc1cccc(CN2CCN(C(=O)Nc3ccccc3)CC2)c1", "note": "[Example 39, 4-(3-Methoxy-benzyl)-piperazine-1-carboxylic acid phenylamide]", "values": [
      {"measurement": "IC50", "result": 1100, "unit": "nM"}
    ]},
    {"smiles": "O=C(Nc1ccccc1)N1CCN(Cc2cccc(Br)n2)CC1", "note": "[Example 71, 4-(6-Bromo-pyridin-2-ylmethyl)-piperazine-1-carboxylic acid phenylamide]", "values": [
      {"measurement": "IC50", "result": 6000, "unit": "nM"}
    ]},
    {"smiles": "O=C(Nc1ccccc1)N1CCN(Cc2ccccn2)CC1", "note": "[Example 46, 4-Pyridin-2-ylmethyl-piperazine-1-carboxylic acid phenylamide]", "values": [
      {"measurement": "IC50", "result": "> 10000", "unit": "nM"}
    ]},
    {"smiles": "O=C(Nc1ccc(F)cc1)N1CCN(Cc2ccc(Br)c(Br)c2)CC1", "note": "[Example 86, 4-(3,4-Dibromo-benzyl)-piperazine-1-carboxylic acid (4-fluoro-phenyl)-amide]", "values": [
      {"measurement": "IC50", "result": 21, "unit": "nM"}
    ]},
    {"smiles": "O=C(Nc1ccccc1)N1CCC(Cc2ccccc2)CC1", "note": "[Example H, 4-Benzyl-piperidine-1-carboxylic acid phenylamide, reference compound]", "values": [
      {"measurement": "IC50", "result": 270, "unit": "nM"}
    ]},
    {"smiles": "O=C(Nc1ccccc1F)N1CCN(Cc2ccc(Br)c(Br)c2)CC1", "note": "[Example 89, 4-(3,4-Dibromo-benzyl)-piperazine-1-carboxylic acid (2-fluoro-phenyl)-amide]", "values": [
      {"measurement": "IC50", "result": 22, "unit": "nM"}
    ]},
    {"smiles": "O=C(Nc1ccc(F)cc1)N1CCN(Cc2ccc3ccccc3n2)CC1", "note": "[Example 58, 4-Quinolin-2-ylmethyl-piperazine-1-carboxylic acid (4-fluoro-phenyl)-amide]", "values": [
      {"measurement": "IC50", "result": 100, "unit": "nM"}
    ]},
    {"smiles": "Cc1ccc(NC(=O)N2CCC(Cc3ccccc3)CC2)cc1", "note": "[Example 113, 4-Benzyl-piperidine-1-carboxylic acid p-tolylamide]", "values": [
      {"measurement": "IC50", "result": 8000, "unit": "nM"}
    ]},
    {"smiles": "O=C(Nc1cccc(Cl)c1)N1CCN(Cc2ccc(Br)c(Br)c2)CC1", "note": "[Example 92, 4-(3,4-Dibromo-benzyl)-piperazine-1-carboxylic acid (3-chloro-phenyl)-amide]", "values": [
      {"measurement": "IC50", "result": 240, "unit": "nM"}
    ]},
    {"smiles": "O=C(Nc1ccccc1)N1CCN(Cc2ccncc2)CC1", "note": "[Example 45, 4-Pyridin-4-ylmethyl-piperazine-1-carboxylic acid phenylamide]", "values": [
      {"measurement": "IC50", "result": "> 10000", "unit": "nM"}
    ]},
    {"smiles": "O=C(Nc1ccccc1)N1CCN(Cc2cc3ccccc3s2)CC1", "note": "[Example 20, 4-Benzo[b]thiophen-2-ylmethyl-piperazine-1-carboxylic acid phenylamide]", "values": [
      {"measurement": "IC50", "result": 19, "unit": "nM"}
    ]},
    {"smiles": "O=C(Nc1ccccc1)N1CCN(Cc2ccnc3ccccc23)CC1", "note": "[Example 50, 4-Quinolin-4-ylmethyl-piperazine-1-carboxylic acid phenylamide]", "values": [
      {"measurement": "IC50", "result": 3000, "unit": "nM"}
    ]},
    {"smiles": "COc1ccc(CN2CCN(C(=O)Nc3ccccc3)CC2)cc1", "note": "[Example 36, 4-(4-Methoxy-benzyl)-piperazine-1-carboxylic acid phenylamide]", "values": [
      {"measurement": "IC50", "result": 470, "unit": "nM"}
    ]}
  ]
}
